# From patent EP1063290A1, “NOVEL DICARBONYLREDUCTASE AND GENE ENCODING THE SAME” (TAISHO PHARMACEUTICAL CO., LTD, priority 1998, dated 1999)
# Where two headings read alike, the source gives them in different places.
# Columns and labels:
# [1] = target: T1, mouse DCR1 (Mus musculus, UniProt Q91X52); assay: Inhibition of the enzyme reaction; format: biochemical
# T1 construct: made in house; host or cells: E. coli K12
# Description: (§1) Two enzymes were used here, mouse DCR1 and hamster liver diacetyl reductase (Hamster DR).
# [2] = target: T2, hamster liver diacetyl reductase (Hamster DR) (Mesocricetus auratus, UniProt Q91XV4); assay: Inhibition of the enzyme reaction; format: biochemical; details: for inhibition at 100 µM / inhibition at 1000 µM: read-out: Inhibition (%) Hamster DR
# T2 construct: from tissue; host or cells: hamster liver
# Description: as §1
# [3] = target: protein hDCR1 (Homo sapiens, UniProt Q7Z4W1); assay: Dicarbonyl reductase activity assay: substrate specificity (NAD(P)H oxidation at 340 nm); details: against a reference of 100 for diacetyl
# Protocol: (§2) The enzyme activity assay method is not particularly restricted, and it may be based on the activity assay method for mouse carbonyl reductase (CR) (Eur. J. Biochem. 22, 381-387(1995)). The enzyme used here was an expressed recombinant enzyme. • (a) Substrate specificity: In order to determine the substrate specificity, there may be used a hydrocarbon system including various ketone, aldehyde and ester groups, or an aromatic compound.
# (§3) The reaction mixture (total: 2.0 ml) comprised an 80 mM potassium phosphate solution (pH 7.0 or 6.0), 0.1 mM NADPH or NADH and a carbonyl substrate or enzyme (50 µl) (10.1 µg or 3.7 µg of hDCR1).
# The oxidation rate for NAD(P)H was measured at 340 nm.
# One unit of enzyme activity was defined as that which catalyzed oxidation of 1 µmol of NAD(P)H in one minute at 25°C.
# [4] = target: protein DCR1 (Mus musculus, UniProt Q91X52); assay: Dicarbonyl reductase activity assay: substrate specificity and rate constants (NAD(P)H oxidation at 340 nm); details: for substrate ranking (smallest Km values, higher catalyst efficiency Vmax/Km): mouse enzyme, Table 2, result in words; for activity (as substrate): Example 5, result in words
# Protocol: as §2
# as §3, with “• (1) This was assayed under the following conditions. The” for “The”, “glomerin B). The oxidation rate for NAD(P)H was measured at 340 nm.” for “hDCR1).”
# [5] = system: dicarbonyl reductase of the invention; assay: Substrate reactivity features summarised from Tables 1, 2 and 3; format: biochemical; details: summary in words of Tables 1, 2 and 3
# [6] = target: T3, dicarbonyl reductase of the invention (Mus musculus, UniProt Q91X52); assay: Effects of metal ions and inhibitors on residual enzyme activity; format: biochemical; details: after treating the enzyme with metals and inhibitors
# T3 construct: made in house; host or cells: E. coli K12
# Protocol: However, since one of their substrates, NADPH, is degraded at below pH 5, activity assay is not possible in that range when NADPH is used and the peak cannot be determined. The examples were therefore carried out at near pH 7, although the optimum pH is not limited to near 7. • (7) pH stability: For example, DCR1 and hDCR1 are incubated for 3 hours at 25°C in buffer solutions with different pH values, and the residual activity is then measured and compared and recorded as relative activity with respect to the value at pH 8.0 with no incubation. • (8) Effects of metal ions and inhibitors: After treating the enzyme with different metals and inhibitors, the residual activity was evaluated.
# [7] = substrate concentration 2,000 μM
# [8] = compound concentration 1 mM, read-out: Inhibition (%) CDR1
# [9] = compound concentration 0.001 mM
# [10] = substrate concentration 5,000 μM
# [11] = substrate concentration 5,000 μM, against a reference of 100 for diacetyl
# [12] = substrate concentration 1,000 μM
# [13] = substrate concentration 1,000 μM, against a reference of 100 for diacetyl
# [14] = substrate concentration 500 μM, against a reference of 100 for diacetyl
# [15] = compound concentration 0.1 mM, read-out: Inhibition (%) CDR1
# protein DCR1, sequence (Q91X52 whole entry): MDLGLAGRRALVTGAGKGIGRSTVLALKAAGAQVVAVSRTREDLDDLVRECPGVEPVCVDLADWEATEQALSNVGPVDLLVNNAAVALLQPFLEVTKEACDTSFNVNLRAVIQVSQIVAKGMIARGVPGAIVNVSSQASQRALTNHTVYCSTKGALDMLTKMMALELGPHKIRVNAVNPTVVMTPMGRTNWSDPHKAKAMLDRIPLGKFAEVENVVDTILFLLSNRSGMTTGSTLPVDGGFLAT
# T1 sequence (Q91X52 whole entry): as above
# T2 sequence (Q91XV4 whole entry): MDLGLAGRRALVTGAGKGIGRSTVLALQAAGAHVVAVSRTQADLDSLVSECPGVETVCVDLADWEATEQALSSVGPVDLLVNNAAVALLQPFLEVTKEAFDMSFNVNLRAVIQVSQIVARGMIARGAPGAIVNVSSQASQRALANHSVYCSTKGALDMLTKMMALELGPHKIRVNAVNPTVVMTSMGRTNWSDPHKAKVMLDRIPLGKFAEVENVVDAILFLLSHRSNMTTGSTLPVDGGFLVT
# protein hDCR1, sequence (Q7Z4W1 whole entry): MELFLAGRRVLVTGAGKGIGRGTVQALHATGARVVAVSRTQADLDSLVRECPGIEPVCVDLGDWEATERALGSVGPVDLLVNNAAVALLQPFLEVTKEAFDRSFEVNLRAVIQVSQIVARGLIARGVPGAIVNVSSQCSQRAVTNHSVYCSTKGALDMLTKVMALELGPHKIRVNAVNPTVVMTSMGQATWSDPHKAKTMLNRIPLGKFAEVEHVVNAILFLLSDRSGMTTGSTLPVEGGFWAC
# T3 sequence (Q91X52 whole entry): as the sequence (Q91X52 whole entry) above
compound,measurement,setting,value
O=C1NC(=O)C(c2ccccc2)(c2ccccc2)N1 [Diphenlhydantoin],inhibition at 100 µM,[1]; read-out: Inhibition (%) CDR1,17%
same,inhibition at 100 µM,[2],2%
O=CC(=O)C[C@H](O)[C@H](O)CO [3-Deoxyglucosone],RA (%) relative activity,[3]; [7],5%
same,RA (%) relative activity,"[4]; substrate concentration 2,000 μM, against a reference of 100 for diacetyl",0.4%
NC(=O)c1ccc(O)cc1 [4-Hydroxybenzamide],inhibition at 1000 µM,[1]; read-out: Inhibition (%) CDR1,44%
same,inhibition at 1000 µM,[2],19%
CC(C)CN [Isobutylamine],inhibition at 1000 µM,[1]; [8],16%
same,inhibition at 1000 µM,[2]; compound concentration 1 mM,50%
Cibacron blue dye,Inhibition (%) CDR1,[1]; [9],21%
same,Inhibition (%) Hamster DR,[2]; [9],18%
CC(=O)C(C)O (stereo not shown) [Acetoin],RA (%) relative activity,[3]; [10],13%
same,RA (%) relative activity,[4]; [11],7.4%
"CC(=O)C(=O)c1ccccc1 [1-Phenyl-1,2-propanedione]",RA (%) relative activity,[3]; [12],65%
same,reactivity (as substrate),[5],strong reactivity
same,"substrate ranking (smallest Km values, higher catalyst efficiency Vmax/Km)",[4],best substrates
same,RA (%) relative activity,[4]; [13],148%
C[C@]12CCC(=O)C[C@@H]1CC[C@@H]1[C@@H]2CC[C@]2(C)[C@@H](O)CC[C@@H]12 [5α-DHT],RA (%) relative activity,[3]; substrate concentration 50 μM,0%
"O=C1CCCCC1=O [1,2-Cyclohexanedione]",RA (%) relative activity,[3]; [12],27%
same,RA (%) relative activity,[4]; [13],10.9%
Nc1ccccc1C(=O)O [Anthranilic acid],inhibition at 100 µM,[1]; read-out: Inhibition (%) CDR1,0%
same,inhibition at 100 µM,[2],42%
NC(=O)c1ccccc1 [Benzamide],inhibition at 1000 µM,[1]; [8],18%
same,inhibition at 1000 µM,[2]; compound concentration 1 mM,43%
O=Cc1ccc([N+](=O)[O-])cc1 [4-Nitrobenzaldehyde],RA (%) relative activity,[3]; [12],69%
same,RA (%) relative activity,[4]; [13],3.3%
O=C(O)c1ccccc1 [Benzoic acid],inhibition at 100 µM,[1]; read-out: Inhibition (%) CDR1,32%
same,inhibition at 100 µM,[2],59%
O=C(O)CC1(CC(=O)O)CCCC1 [Tetramethyleneglutaric acid],inhibition at 100 µM,[1]; read-out: Inhibition (%) CDR1,0%
same,inhibition at 100 µM,[2],63%
O=Cc1ccncc1 [Pyridine-4-aldehyde],RA (%) relative activity,[3]; [12],27%
same,RA (%) relative activity,[4]; [11],13.7%
CC12CCC(C(=O)C1=O)C2(C)C (stereo not shown) [Camphorquinone],RA (%) relative activity,[3]; substrate concentration 500 μM,23%
same,RA (%) relative activity,[4]; [14],6%
"CCCCC(=O)C(C)=O [2,3-Heptanedione]",RA (%) relative activity,[3]; [12],174%
same,reactivity (as substrate),[5],strong reactivity
same,RA (%) relative activity,[4]; [13],134%
O=C1C(=O)c2cccc3cccc1c23 [Acenaphthenequinone],RA (%) relative activity,[3]; substrate concentration 25 μM,181%
same,reactivity (as substrate),[5],strong reactivity
same,RA (%) relative activity,"[4]; substrate concentration 25 μM, against a reference of 100 for diacetyl",14.1%
O=C1Nc2ccccc2C1=O [Isatin],RA (%) relative activity,[3]; substrate concentration 500 μM,252%
same,reactivity (as substrate),[5],strong reactivity
same,RA (%) relative activity,"[4]; substrate concentration 400 μM, against a reference of 100 for diacetyl",106.7%
CC(=O)c1ccc([N+](=O)[O-])cc1 [4-Nitroacetophenone],RA (%) relative activity,[3]; [12],0%
same,activity (as substrate),[4],no activity
same,RA (%) relative activity,[4]; [13],0%
COc1cccc2c1C(=O)c1c(O)c3c(c(O)c1C2=O)C[C@@](O)(C(C)=O)C[C@@H]3O[C@H]1C[C@H](N)[C@H](O)[C@H](C)O1 [Daunorubicin],RA (%) relative activity,[3]; substrate concentration 500 μM,0%
same,RA (%) relative activity,[4]; [14],1.1%
"CCC(=O)C(C)=O [2,3-Pentanedione]",RA (%) relative activity,[3]; [12],167%
same,reactivity (as substrate),[5],strong reactivity
same,RA (%) relative activity,[4],163%
O=c1c(O)c(-c2ccc(O)c(O)c2)oc2cc(O)cc(O)c12 [Quercitin],inhibition at 100 µM,[1]; [15],50%
same,inhibition at 100 µM,[2]; compound concentration 0.1 mM,33%
COC(=O)C(C)=O [Pyruvic acid methyl ester],RA (%) relative activity,[3]; [12],46%
same,RA (%) relative activity,[4]; [13],23.3%
c1cn[nH]c1 [Pyrazole],inhibition at 10000 µM,"[1]; compound concentration 10 mM, read-out: Inhibition (%) CDR1",29%
same,inhibition at 10000 µM,[2]; compound concentration 10 mM,5%
c1cnc2c(c1)ccc1cccnc12 [o-Phenanthroline],inhibition at 1000 µM,[1]; read-out: Inhibition (%) CDR1,8%
same,inhibition at 1000 µM,[2],0%
[Cl-].[Cl-].[Mg+2] [MgCl2],effect on the enzyme (residual activity),[6],virtually no effect
"CC1=CC(=O)c2ccccc2C1=O [Menadione (Vitamin K3), Menadione]",RA (%) relative activity,[3]; substrate concentration 100 μM,0%
same,activity (as substrate),[4],no activity
same,RA (%) relative activity,"[4]; substrate concentration 100 μM, against a reference of 100 for diacetyl",0.1%
[Ca+2].[Cl-].[Cl-] [CaCl2],effect on the enzyme (residual activity),[6],virtually no effect
"C[C@]12CCC(=O)C[C@@H]1CC[C@@H]1[C@@H]2CC[C@]2(C)C(=O)CC[C@@H]12 [5α-Androstane-3,17-dione]",RA (%) relative activity,[3]; substrate concentration 50 μM,0%
same,RA (%) relative activity,[4],0.0%
COC(=O)CCC(=O)C(=O)OC [Dimethyl-2-oxoglutarate],RA (%) relative activity,[3]; [7],63%
C[C@]12C[C@H](O)[C@H]3[C@@H](CCC4=CC(=O)CC[C@@]43C)[C@@H]1CC[C@@H]2C(=O)CO [Corticosterone],RA (%) relative activity,[3]; substrate concentration 50 μM,0%
"CC(=O)CC(C)=O [2,4-Pentanedione]",RA (%) relative activity,[3]; [12],0%
same,RA (%) relative activity,[4]; [13],0%
C=C(CC)C(=O)c1ccc(OCC(=O)O)c(Cl)c1Cl [Ethacrynic acid],inhibition at 100 µM,[1]; [15],0%
same,inhibition at 100 µM,[2]; compound concentration 0.1 mM,3%
O=Cc1cccnc1 [Pyridine-3-aldehyde],RA (%) relative activity,[3]; [12],27%
same,RA (%) relative activity,[4]; [13],4%
CC(=O)C=O [Methylglyoxal],RA (%) relative activity,[3]; [10],20%
same,RA (%) relative activity,[4]; [13],2.3%
same,RA (%) relative activity,[4]; [11],7.9%
"O=C(CBr)C(=O)CBr [1,4-dibromo-2,3-butanedione]",RA (%) relative activity,[3]; [12],133%
same,reactivity (as substrate),[5],strong reactivity
O=C(O)c1ccncc1 [Isonicotinic acid],inhibition at 100 µM,[1]; [15],0%
same,inhibition at 100 µM,[2]; compound concentration 0.1 mM,4%
O=CC(O)CO (racemic) [DL-Glyceraldehyde],RA (%) relative activity,[3]; [10],25%
same,RA (%) relative activity,[4]; [13],10.4%
same,RA (%) relative activity,[4]; [11],40%
CCC1(CC)C(=O)NC(=O)NC1=O [Barbital],inhibition at 1000 µM,[1]; read-out: Inhibition (%) CDR1,0%
same,inhibition at 1000 µM,[2],5%
O=CC(=O)c1ccccc1 [Phenylglyoxal],RA (%) relative activity,[3]; [12],35%
same,RA (%) relative activity,[4]; [13],3.9%
O=Cc1ccccc1[N+](=O)[O-] [2-Nitrobenzaldehyde],RA (%) relative activity,[3]; [12],99%
same,RA (%) relative activity,"[4]; substrate concentration 1,500 μM, against a reference of 100 for diacetyl",3.9%
CC(=O)[C@@]1(O)CC[C@H]2[C@@H]3CCC4=CC(=O)CC[C@]4(C)[C@H]3CC[C@@]21C [17α-hydroxyprogesterone],RA (%) relative activity,[3]; substrate concentration 50 μM,0%
same,RA (%) relative activity,"[4]; substrate concentration 20 μM, against a reference of 100 for diacetyl",0.0%
C[C@]12CCC(=O)C[C@H]1CC[C@@H]1[C@@H]2C(=O)C[C@@]2(C)[C@H]1CC[C@]2(O)C(=O)CO [5β-dihydrocortisone],RA (%) relative activity,[3]; substrate concentration 20 μM,0%
O=C(c1ccccc1)c1ccncc1 [4-Benzoylpyridine],RA (%) relative activity,[3]; [12],39%
same,RA (%) relative activity,[4]; [13],7%
"CCC(=O)C(=O)CC [3,4-Hexanedione]",RA (%) relative activity,[3]; [12],170%
same,reactivity (as substrate),[5],strong reactivity
same,"substrate ranking (smallest Km values, higher catalyst efficiency Vmax/Km)",[4],best substrates
same,RA (%) relative activity,[4]; [13],232%
CCOC(=O)C(C)=O [Pyruvic acid ethyl ester],RA (%) relative activity,[3]; [12],33%
same,RA (%) relative activity,[4]; [13],35.2%
"CCCC(=O)C(C)=O [2,3-Hexanedione]",RA (%) relative activity,[3]; [12],168%
same,reactivity (as substrate),[5],strong reactivity
same,RA (%) relative activity,[4]; [13],108%
